Here are results for one sequence from patent publication US20260027179A1, “ANTI-SYNUCLEINOPATHY PEPTIDE AND METHODS TO TREAT NEURODEGENERATIVE DISEASES” (University of British Columbia, priority 2021, published 2026).

For one assay, the system named is C57BL/6 mice. Description: MPTP mouse model, rotarod test. The conditions noted are these: peptide 6 μmol/kg i.p. twice a day for 12 days, vs MPTP group. It is filed as in vivo. The protocol:
(§1) C57BL/6 mice (20-25 g) received intraperitoneal (i.p.) injection of 30 mg/kg parkinsonian toxin MPTP hydrochloride once a day for 5 days to induce dopaminergic neuron death in the substantia nigra, while the control mice received equal volumes of saline injection. 6 μmol/kg Tat-βsyn-degron peptide or control Tat-βsyn peptide was i.p. injected into the MPTP-treated mice every 12 hrs from the first day of MPTP injection until 7 days after the last injection of MPTP. All groups of mice then underwent a rotarod test before they were sacrificed.
The rotarod test was performed as previously described (Heldermon, C. D. et al., PloS one 2, e772, doi:10.1371/journal.pone.0000772 (2007)), with modifications. Briefly, 6 days after the last MPTP injection, all mice received 4 rounds of training on the rotarod (Stoelting Co.). In the first two rounds of training, the rotarod was maintained at constant speed of 20 rpm for 3 min. In the second two rounds of training, the rotarod reversed rotation direction every 3 turns at the constant speed of 20 rpm for 3 min. […] Mice were tested 10 times at 20 min intervals, and the time that they remained on the rotarod during each test was recorded. […] The motor performance of the mouse was expressed as the latency to fall off the rotarod.

The test system of another assay is dopaminergic neurons. Description: MPTP mouse model, dopaminergic neuronal damage (TH immunoblotting, TH immunohistochemistry). Particulars: peptide 6 μmol/kg i.p. twice a day for 12 days. The format is in vivo. The protocol: C57BL/6 mice were i.p. injected with 30 mg/kg parkinsonian toxin MPTP (or saline as control), once per day for 5 consecutive days, to induce dopaminergic neuron damage. The effects of MPTP administration on mouse rotarod performance and damage to dopaminergic neurons were then analyzed 1 week after the last injection of MPTP. To determine the effect of α-synuclein knockdown in protecting dopaminergic neurons against MPTP, the Tat-βsyn-degron peptide or its control Tat-βsyn (6 μmol/kg; i.p.) was used in some animals twice a day for 12 days, beginning the first day of MPTP injection. […] The striatum is a region that receives dopaminergic neuronal projections from the substantia nigra and is also deeply affected in PD. Consistent with the specific neurotoxic effects of MPTP on dopaminergic neurons, in mice receiving MPTP injection alone there was a significant loss of protein TH in both dopaminergic neurons in the substantia nigra-containing ventral midbrain (FIGS. 6a and 6c) and dopaminergic neuronal terminals in the striatum (FIGS. 6d and 6f). […] As expected, the specific knockdown of α-synuclein by Tat-βsyn-degron protected against MPTP-induced dopaminergic neuronal injury (FIGS. 6c and 6f).
as §1
Brain tissues or cultured cells were lysed on ice in the lysis buffer and then the solution was centrifuged at 14,000 rpm for 10 min at 4° C. Next, the supernatant was collected and protein concentrations were determined using a BCA protein assay kit (Thermo Scientific, 23227). Equal amount of protein samples was mixed with 4× sample buffer, boiled at 100° C. for 5 min, and separated on 10% sodium dodecyl sulphate-polyacrylamide gel electrophoresis (SDS-PAGE). Proteins were then transferred to Immobilon-PTM polyvinylidene fluoride (PVDF) membranes (Bio-Rad, 162-0177). The membranes were blocked with 5% non-fat milk in Tris-buffered saline containing 0.1% Tween-20 (TBST) for 1 hr at room temperature, and then incubated overnight at 4° C. with primary antibody. After washing 3×5 min in TBST, membranes were incubated with horseradish peroxidase-conjugated secondary antibody for 1 hr at room temperature. After another three washes with TBST, protein was visualized in the Bio-Rad Imager using ECL western blotting substrate (Pierce, 32016). The band density of each protein was quantified by the Bio-Rad Quantity One software and the relative optical density was analyzed relative to the loading control β-actin on the same membrane.
C57BL/6 mice were anesthetized with 1.5 g/kg urethane (Sigma, U2500) and then perfused with 0.9% saline and 4% paraformaldehyde. Brains were removed and fixed in 4% paraformaldehyde for 24 hrs before being transferred to 30% sucrose/PBS solution for cryoprotection. The brains were then sectioned into 30 μm slices using a Leica cryostat. After blocking and permeabilization using a PBS solution containing 1% BSA and 0.2% Triton X-100 for 30 min at room temperature, the brain slices were incubated with anti-TH antibody (1:800 dilution) for 3 days at 4° C. Finally, the TH-positive neurons in the substantia nigra and TH-positive neuronal terminals in the striatum were stained using the anti-mouse Ig HRP detection kit (BD Transduction Laboratories, 551011) according to manufacturer's instruction, and visualized under Zeiss Axio Observer D1 microscope. […]

The target in assay [1] is T1, purified recombinant human α-synuclein (Homo sapiens, UniProt P37840).
T1 construct: His (histidine tag) (N); purchased Sigma S7820-500UG
Description: Biacore peptide-protein binding assay. The conditions noted are these: 0.20-12.50 μM peptide, report point 20 seconds into dissociation. The protocol: Biacore experiments were performed using a Biacore 3000 instrument (GE Healthcare Biosciences, Upsala, Sweden) and HBS running buffer, pH 7.4, containing 10 mM HEPES, 150 mM NaCl, 3 mM EDTA, and 0.005% surfactant P20. A research-grade CM5 sensor chip was activated with a mixture containing equal molar amounts of EDC (N-ethyl-N′-(dimethylaminopropyl) carbodiide and NHS (N-hydroxysuccinimide). Purified recombinant human α-synuclein (N-terminal histidine tagged, Sigma, S7820-500UG), diluted in sodium acetate pH 3.1, was then injected and covalently coupled to a flow cell of the sensor chip surface by amide bonding. Residual unreacted sites were blocked with ethanolamine. A reference surface, to account for non-specific binding, was similarly generated by activating and blocking an adjacent flow cell. Approximately 1500 resonance units (RU), equivalent to a surface concentration of 1500 pg/mm^2 of α-synuclein, was immobilized.
To ascertain the binding interaction between α-synuclein knockdown peptides and α-synuclein, synthetic Tat-βsyn-degron peptide or control tat peptide was serially diluted and sequentially injected over the active surface containing immobilized α-synuclein and the reference surface for 3 minutes at a flow rate of 30 μl/minute. The peptides were then allowed to dissociate for 3 minutes during which time HBS running buffer was injected. The resultant sensorgrams were double-referenced by subtracting out the binding on the reference surface and the response from the HBS blank buffer control. Binding response report points were collected 20 seconds into the dissociation phase of the interaction at time 200 seconds, which represents a stable binding response and excludes bulk refractive index changes and nonspecific binding.

The mark [2] stands for this setting: MPTP 30 mg/kg x5 days, immunoblot.

Turning to “YGRKKRRQRRRRTKSGVYLVGRRRG (The sequence is synthesized (YGRKKRRQRRRRTKSGVYLVGRRRG)) [Tat-βsyn-degron]”, the “MPTP-induced motor deficits (latency to fall off the rotarod)” value with C57BL/6 mice is “significantly reduced”. In the assay on dopaminergic neurons (setting [2]), the “TH protein level in striatum after MPTP” value is listed as “protected against the MPTP-induced decrease in the level of TH protein” and the “TH protein level in ventral midbrain after MPTP” value is reported as “protected against the MPTP-induced decrease in the level of TH protein”. Also, the “MPTP-induced dopaminergic neuronal damage (overall, FIG. 6 and FIG. 7a-d)” value in the assay with dopaminergic neurons is “largely protected”. In the assay with dopaminergic neurons (TH densitometry), the “density of dopaminergic neuronal terminals in the striatum after MPTP” value is “protected against MPTP-induced decrease”. The “number of dopaminergic neurons in the substantia nigra pars compacta after MPTP” value in the assay on dopaminergic neurons (blinded TH neuron counting) is reported as “protected against MPTP-induced decrease in the number of dopaminergic neurons”. The “binding response to immobilized α-synuclein” value in assay [1] is “robust and similar binding”.
